The target of experiment [1] is T1, MT1 (Homo sapiens, UniProt P48039). Kind of experiment: ERK activation. The experiment is classed as cell-based. The conditions noted are these: for EC50: hMT1 cells, 5 min stimulation.
Experiment [2] addresses T1, MT1. Kind of experiment: β-arrestin2 recruitment BRET assay in HEK293 cells. The experiment is classed as cell-based. The conditions noted are these: for EC50: hMT1 HEK293 cells, BRET; for effect on ß-arrestin recruitment: Figure S2C. In general terms: Activated receptors often draw arrestin, which recruitment assays turn into a signal.
Experiment [3] concerns the target T1, MT1. The experiment in a line: cAMP accumulation assay, forskolin-stimulated HEK293 cells. It is filed as cell-based. Particulars: for EC50: hMT1 HEK293 cells, 1 μM forskolin. On the technique in general: cAMP levels reflect the balance of adenylyl cyclase and phosphodiesterase activity.
The target of experiment [4] is T1, MT1. Kind of experiment: 2-[125I]-iodomelatonin competition binding assay, membranes of HEK293 cells. Particulars: for Ki: 2-[125I]MLT binding assay, hMT1 stably expressed in HEK293 cells; for drop in binding affinity: MT1, relative to 19c.
Another experiment has as its system HT-1080. Kind of experiment: Cell survival by MTT assay, HT-1080. It is filed as cell-based. The conditions noted are these: IC50 MLT+TAM versus IC50 compound. On the technique in general: Tetrazolium assays rely on reduction of a dye to a coloured formazan, in cell work by metabolically active cells.
Experiment [5] has as its system human MT1 receptors expressed in CHO cells. Particulars: [125I]-iodomelatonin; cited from earlier work.
The next experiment addresses T2, human ERα (Homo sapiens, UniProt P03372).
T2 sequence (P03372 1-595): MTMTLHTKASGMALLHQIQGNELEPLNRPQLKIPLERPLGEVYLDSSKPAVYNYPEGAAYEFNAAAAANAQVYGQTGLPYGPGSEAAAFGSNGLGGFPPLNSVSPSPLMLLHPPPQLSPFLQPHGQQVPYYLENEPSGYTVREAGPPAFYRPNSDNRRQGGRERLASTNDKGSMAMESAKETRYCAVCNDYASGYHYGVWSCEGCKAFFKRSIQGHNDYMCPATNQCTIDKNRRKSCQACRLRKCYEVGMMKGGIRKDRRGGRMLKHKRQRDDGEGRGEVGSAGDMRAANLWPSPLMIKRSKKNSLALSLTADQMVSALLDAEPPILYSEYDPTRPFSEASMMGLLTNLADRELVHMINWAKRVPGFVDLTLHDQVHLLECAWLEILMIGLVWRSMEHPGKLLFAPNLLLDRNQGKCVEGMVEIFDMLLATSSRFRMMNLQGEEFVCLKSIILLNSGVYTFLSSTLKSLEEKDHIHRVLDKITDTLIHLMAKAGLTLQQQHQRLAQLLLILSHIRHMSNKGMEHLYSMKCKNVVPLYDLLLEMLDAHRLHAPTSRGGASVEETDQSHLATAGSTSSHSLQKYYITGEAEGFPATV
Kind of experiment: cell-based.

A further experiment concerns MDA-MB-231. Kind of experiment: Cell survival by MTT assay, MDA-MB-231. It is filed as cell-based. The conditions noted are these: IC50 MLT+TAM versus IC50 compound.
Setting [6] is: pEC50 ± S.E.M., ß-arrestin recruitment.
Where [7] appears, read: pEC50 ± S.E.M., cAMP accumulation.

T1 sequence (P48039 whole entry): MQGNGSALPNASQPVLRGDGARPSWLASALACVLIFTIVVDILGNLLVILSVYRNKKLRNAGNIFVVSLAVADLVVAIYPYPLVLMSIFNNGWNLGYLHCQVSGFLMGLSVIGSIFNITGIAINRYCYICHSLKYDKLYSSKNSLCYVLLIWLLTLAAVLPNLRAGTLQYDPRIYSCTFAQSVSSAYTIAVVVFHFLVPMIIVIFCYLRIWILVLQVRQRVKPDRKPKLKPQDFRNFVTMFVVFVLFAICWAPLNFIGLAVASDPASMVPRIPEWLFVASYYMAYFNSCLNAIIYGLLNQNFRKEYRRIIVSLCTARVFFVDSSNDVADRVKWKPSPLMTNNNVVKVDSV

The term EC50 denotes the midpoint of the concentration-response curve. By Ki is commonly meant a dissociation constant, usually derived from enzyme kinetics or from competition with a known ligand. Read a low Ki as higher affinity. For the compound `CC/C(=C(\c1ccccc1)c1ccc(OCCN(C)C(=O)CCCCCOc2ccc3[nH]cc(CCNC(C)=O)c3c2)cc1)c1ccccc1` [compound 19b, (Z)-6-((3-(2-Acetamidoethyl)-1H-indol-5-yl)oxy)-N-(2-(4-(1,2-diphenylbut-1-en-1-yl)phenoxy)ethyl)-N-methylhexanamide], the concentration for a half-maximal effect (EC50) at MT1 [1] (EC50, ERK activation) worked out at 0.178 µM; at MT1 [1] (pEC50 ± S.E.M., ERK activation), 0.12 µM; at MT1 [2] (EC50, ß-arrestin recruitment), 4.66 µM; at MT1 [2] (setting [6]) it was 3.89 µM; at MT1 [3] (EC50, cAMP accumulation), 0.389 µM; on MT1 [3] (setting [7]), 0.372 µM. Besides, the values for the Ki on MT1 [4] (Ki) and at MT1 [4] (pKi ± S.E.M.) were 3.15 µM and 2.95 µM, respectively. The “drop in binding affinity” value at MT1 [4] is > 1,000 fold.

For the compound `CC/C(=C(\c1ccccc1)c1ccc(OCCN(C)CCOCCOCCOc2ccc3[nH]cc(CCNC(C)=O)c3c2)cc1)c1ccccc1` [compound 21, (Z)-N-(2-(5-(2-(2-(2-((2-(4-(1,2-Diphenylbut-1-en-1-yl)phenoxy)ethyl)(methyl)amino)ethoxy)ethoxy)ethoxy)-1H-indol-3-yl)ethyl)acetamide], the EC50 on MT1 [1] (EC50, ERK activation) was 0.036 µM; at MT1 [1] (pEC50 ± S.E.M., ERK activation), 0.0282 µM; on MT1 [2] (EC50, ß-arrestin recruitment) it was 0.197 µM; at MT1 [2] (setting [6]), 0.138 µM; on MT1 [3] (EC50, cAMP accumulation), 0.0743 µM; on MT1 [3] (setting [7]), 0.0631 µM. At MT1 [2], the “effect on ß-arrestin recruitment” value was “clear partial effect”. For the same compound, the “sensitization versus combined melatonin and tamoxifen treatment” value in the experiment on HT-1080 was found to be 3.6 fold. Also, the figures for the Ki on MT1 [4] (Ki) and on MT1 [4] (pKi ± S.E.M.) were 0.0065 µM and 0.00617 µM, respectively.

Take `COc1ccc2[nH]cc(CCNC(C)=O)c2c1` [MLT, melatonin]: in experiment [5], the “affinity, competition binding” value is 8.6 nM.

The term IC50 denotes the concentration that inhibits the measured activity by half. For the compound `CC/C(=C(\c1ccccc1)c1ccc(OCCN(C)C(=O)CCCCOc2ccc3[nH]cc(CCNC(C)=O)c3c2)cc1)c1ccccc1` [19a, (Z)-5-((3-(2-Acetamidoethyl)-1H-indol-5-yl)oxy)-N-(2-(4-(1,2-diphenylbut-1-en-1-yl)phenoxy)ethyl)-N-methylpentanamide], the “effect on ERK activation” value on MT1 [1] (cells expressing MT1) is “no effect”. At MT1 [2], the “effect on ß-arrestin recruitment” value is reported as “no effect”. The EC50 is 0.977 µM on MT1 [2] (setting [6]); above 10 µM at MT1 [3] (EC50, cAMP accumulation); 8.91 µM on MT1 [3] (setting [7]). For the same compound, the IC50 against human ERα was around 0.1 µM. The “sensitization versus combined melatonin and tamoxifen treatment” value in the experiment on MDA-MB-231 is on record as 3.0 fold. The compound further yielded a Ki on MT1 [4] (Ki) above 10 µM. The “drop in binding affinity” value at MT1 [4] is recorded as > 1,000 fold.

On to `CC/C(=C(\c1ccccc1)c1ccc(OCCN(C)CCCCCC(=O)NCCCOc2ccc3[nH]cc(CCNC(C)=O)c3c2)cc1)c1ccccc1` [16b, (Z)-N-(3-((3-(2-Acetamidoethyl)-1H-indol-5-yl)oxy)propyl)-6-((2-(4-(1,2-diphenylbut-1-en-1-yl)phenoxy)ethyl)(methyl)amino)hexanamide], for which the EC50 at MT1 [1] (EC50, ERK activation) was 0.016 µM; at MT1 [1] (pEC50 ± S.E.M., ERK activation), 0.0138 µM; on MT1 [2] (EC50, ß-arrestin recruitment), 0.999 µM; at MT1 [2] (setting [6]), 0.955 µM; at MT1 [3] (EC50, cAMP accumulation), 0.987 µM; at MT1 [3] (setting [7]) it was 0.871 µM. Moreover, the Ki worked out at 0.022 µM on MT1 [4] (Ki) and 0.02 µM at MT1 [4] (pKi ± S.E.M.).

With `CC/C(=C(\c1ccccc1)c1ccc(OCCN(C)C(=O)CCCCCCOc2ccc3[nH]cc(CCNC(C)=O)c3c2)cc1)c1ccccc1` [19c, (Z)-7-((3-(2-Acetamidoethyl)-1H-indol-5-yl)oxy)-N-(2-(4-(1,2-diphenylbut-1-en-1-yl)phenoxy)ethyl)-N-methylheptanamide], the EC50 on MT1 [1] (EC50, ERK activation) was found to be 0.161 µM; on MT1 [1] (pEC50 ± S.E.M., ERK activation), 0.0617 µM; on MT1 [2] (EC50, ß-arrestin recruitment), 2.23 µM; on MT1 [2] (setting [6]), 1.07 µM; at MT1 [3] (setting [7]), 0.209 µM. The compound also registered an IC50 at human ERα of around 0.1 µM. For the same compound, the “right shift of cAMP EC50 compared to Ki” value on MT1 [3] (MT1) turned out to be 2 logs. Besides, the Ki on MT1 [4] (Ki) worked out at 0.0028 µM; on MT1 [4] (pKi ± S.E.M.) it was 0.00263 µM.

(Values after article PMC11618438 (ACS Omega, 2024).)
